# Where two headings read alike, the source gives them in different places.
# Assays:
# [1] = Stability of Disarib in PBS (HPLC); format: physicochemical; details: 37 °C; 0, 2, 4, 6 h; HPLC peak
# Method: (§1) The stability of Disarib (100 μM) was investigated in phosphate-buffered saline (PBS) and in plasma. The blood was collected from rats by heart puncture, and plasma was separated for the study. After the addition of Disarib into plasma or PBS, the mixture was incubated at 37 °C in water bath[25],[26]. The samples were then collected at different time points, 0, 2, 4, and 6 h, mixed manually with acetonitrile (1:1), and analyzed on HPLC[27],[40]. The values plotted represent the mean of three independent experiments. The samples were analyzed by HPLC using the Shimadzu HPLC system. LC was carried out on the C18 analytical column. The mobile phase was the gradient of acetonitrile and water. Disarib specific peaks were detected at 232 nm. The injection volume was 20 μl, and the flow rate was 1.2 ml/min. The standard curves were constructed by plotting the peak area vs. concentration of Disarib[40].
# [2] = design: method as in PMID 27693384; details: mice, cited from earlier work
# BCL-xL = test system: BCL-xL; design: method as in PMID 28223017, PMID 27693384; details: cited from earlier work
# Wistar rats [3] = assay: Serum biochemistry (liver and kidney function); format: in vivo, Wistar rats (Rattus norvegicus); details: serum day 14
# Method: After 14 days of Disarib administration, two animals were sacrificed using CO2 asphyxiation from each group, and blood was collected in tubes without using anticoagulant and centrifuged (900×g, 10 min). Serum glutamic pyruvic transaminase (SGPT), serum glutamic oxaloacetic transaminase (SGOT), alkaline phosphatase (ALP), albumin, total protein, bilirubin, blood urea nitrogen (BUN), creatinine, uric acid, and phosphorous were analyzed as described earlier[28],[29]. Analysis of serum samples was performed at Rohana Veterinary Diagnostic Lab, Bangalore, India.
# Wistar rats [4] = assay: Histology (H&E) of organs; format: in vivo, Wistar rats (Rattus norvegicus); details: 2000 mg/kg oral, day 14, H&E
# Method: At the end of the experimental period (14 days), two animals from each group were sacrificed following CO2 asphyxiation. Liver, kidney, intestine, spleen, lungs, and heart were collected, fixed in 4% paraformaldehyde (PFA) and processed for histology, as described before[44]–[46]. For histological studies, tissues from rats treated with the highest dose (2000 mg/kg) and the vehicle control group were selected. Paraffin blocks were prepared and sections were taken using a rotary microtome (Leica Biosystems, Buffalo Grove, IL, USA) with a thickness of 5 µm. Following deparaffination, sections were stained with hematoxylin and eosin (H&E), mounted in DPX, and imaged under a bright-field microscope (Carl Zeiss AxioVision, Oberkochen, Germany).
# mice tumor models = details: cited from earlier work
# bone marrow cells = assay: Micronucleus assay for genotoxicity; format: in vivo; details: Wistar rats, 50 mg/kg b. wt. oral; 24, 48 and 72 h post-treatment
# Method: To evaluate genotoxicity caused by Disarib at the effective dose, micronucleus assay was performed[32]–[34]. Wistar rats (n = 6) were orally administered with Disarib (50 mg/kg), and bone marrow cells were collected after 24, 48, and 72 h post-treatment. Bone marrow cells were flushed out in 1X PBS containing EDTA, centrifuged, fixed (2% PFA) and stained with DAPI. Cells exposed to γ-irradiation (4 Gy) served as a positive control for the assay and were imaged using a fluorescence microscope (Nikon, Tokyo, Japan). At least 500 cells were counted from each animal for each time point, and data was plotted and represented as a bar diagram.
# [5] = Pharmacokinetics in serum of Wistar rats after oral administration (HPLC); format: in vivo, Wistar rats (Rattus norvegicus); details: 50 mg/kg b. wt oral
# Method: Wistar rats (Rattus norvegicus) were administered with 50 mg/kg Disarib orally, and blood was collected by heart-puncture method following sacrifice at different time points (15 min, 30 min, 1, 2, 4, 6, 8, 10, 12, 24, 48 and 72 h) following treatment. Blood was allowed to clot, and serum was separated by centrifugation (900×g, 10 min) and deproteinized by adding acetonitrile. Samples for standard calibration curve were prepared by spiking 100 μM Disarib in rat plasma. The supernatant was loaded onto a C18 column, and HPLC analysis was performed in acetonitrile:water gradient, as described before[23],[38] (Shimadzu, Kyoto, Japan). Disarib specific peak were acquired at 232 nm wavelength. At least two mice were sacrificed at each time point for the study. Pharmacokinetic parameters were analysed by using LabSolutions software (Shimadzu, Japan), and the values obtained were plotted with GraphPad Prism (ver5.1) software, where C is predicted concentration and t is time. Data was analysed using nonlinear regression analysis. Maximum drug plasma concentration (Cmax) and Time to reach Cmax was determind by area under the curve versus time curve. Clearance (Cl) and steady state volume of distribution (Vss) were calculated respectively by rate of drug elimination and amount of drug in the body at equilibrium condition vs steady state drug concentration in plasma.
# The samples were analyzed by HPLC using the Shimadzu HPLC system. LC was carried out on the C18 analytical column. The mobile phase was the gradient of acetonitrile and water. Disarib specific peaks were detected at 232 nm. The injection volume was 20 μl, and the flow rate was 1.2 ml/min. The standard curves were constructed by plotting the peak area vs. concentration of Disarib[40].
# [6] = In vitro stability of Disarib in plasma (HPLC); format: in vitro ADME, rats; details: 80% plasma diluted in PBS; 37 °C; 0, 2, 4, 6 h; HPLC peak
# Method: as §1
# [7] = Wistar rats, 100, 1000, 2000 mg/kg oral
structure (smiles),measurement,setting,value
O=C1Nc2ccccc2/C1=C/c1c(-c2ccc(Br)cc2)nc2sc(Cc3ccc(Cl)cc3)nn12 [Disarib],stability in PBS,[1],stable in PBS up to 6 h
same,time at which maximum circulating concentration (Cmax) was obtained,[2]; 10 mg/kg intraperitoneal,30 min
same,clearance rate (CL),[2],0.378 L/h/kg
same,t1/2,[2],2.3 h
same,interaction with BCL-xL,BCL-xL,not with other antiapoptotic proteins such as BCL-xL
same,"hepatic function tests (SGPT, ALP, SGOT, total protein, Albumin, Bilirubin)",Wistar rats [3]; [7],did not cause any adverse effect on liver function
same,"renal function (BUN, Creatinine, Phosphorous, Uric acid) vs control",Wistar rats [3]; [7],did not have any appreciable variation
same,ALP level vs control,"Wistar rats [3]; Wistar rats, 100 and 1000 mg/kg oral, higher than control",the increase was limited and was not significant
same,SGOT level vs control,"Wistar rats [3]; Wistar rats, maximal dose (2000 mg/kg) oral, within normal range, not significant",marginally higher
same,intestine histology,Wistar rats [4],Normal structure and organization
same,kidney histology,Wistar rats [4],No glomerular dilation and tubular necrosis
same,liver histology,Wistar rats [4],"no cellular change in lobular liver texture, hepatocytes and sinusoidal spaces"
same,lungs and heart histology,Wistar rats [4],did not show difference in the structure of alveoli and cardiac muscles
same,spleen histology,Wistar rats [4],no difference in spleen architecture
same,tumor regression,"mice tumor models; mice, intraperitoneal route",efficient tumor regression comparable to that of ABT199
same,tumor progression,"mice tumor models; oral administration, multiple mice tumor models",significant reduction in tumor progression
same,genotoxicity (micronucleus formation in bone marrow cells),bone marrow cells,no DNA damage induced by Disarib
same,maximum concentration (Cmax) in serum,[5],~ 18 μg/ml
same,steady state volume of distribution (Vss),[5]; estimated,4.16 L/kg
same,clearance rate,[5]; estimated from rate of drug elimination,0.0264 L/h/kg
same,t1/2,[5]; serum,36 h
same,time to Cmax (Tmax),[5]; serum,24 h
same,stability in plasma,[6],gradually decreased in plasma with increasing time

# From paper PMC8113538, “Acute toxicity analysis of an inhibitor of BCL2, Disarib, in rats” (Scientific Reports, 2021)
